Results as given in patent US8871681B2, “Herbicidal compositions comprising 4-amino-3-chloro-5-fluoro-6-(4-chloro-2-fluoro-3-methoxyphenyl) pyridine-2-carboxylic acid or a derivative thereof and certain sulfonylureas” (Dow AgroSciences LLC, priority 2012, dated 2014).

Legend:
[1] = system: CIRAR (Cirsium arvense, Canada thistle); test: Post-emergence foliar-applied weed control in cereal crops, greenhouse (Example III); format: in vivo, Cirsium arvense (L.) Scop.; conditions: Cirsium arvense, post-emergence; Table 58 (cereal); foliar-applied; after 20-22 days; 3.75 gai/ha alone; read-out: Weed Control CIRAR Obs
Procedure: Seeds of the desired test plant species were planted in Sun Gro MetroMix® 306 planting mixture, which typically has a pH of 6.0 to 6.8 and an organic matter content of about 30 percent, in plastic pots with a surface area of 103.2 square centimeters (cm^2). When required to ensure good germination and healthy plants, a fungicide treatment and/or other chemical or physical treatment was applied. The plants were grown for 7-36 days in a greenhouse with an approximate 14 hour photoperiod which was maintained at about 18° C. during the day and 17° C. during the night. Nutrients and water were added on a regular basis and supplemental lighting was provided with overhead metal halide 1000-Watt lamps as necessary. The plants were employed for testing when they reached the second or third true leaf stage.
Treatments consisted of the benzyl ester of 4-amino-3-chloro-5-fluoro-6-(4-chloro-2-fluoro-3-methoxy-phenyl)pyridine-2-carboxylic acid (Compound A), formulated as an SC (suspension concentrate), and a second cereal herbicide alone and in combination.
Measured aliquot of benzyl ester of 4-amino-3-chloro-5-fluoro-6-(4-chloro-2-fluoro-3-methoxy-phenyl)pyridine-2-carboxylic acid (Compound A) was placed in 25 milliliter (mL) glass vials and diluted in a volume of 1.25% (v/v) Agri-dex crop oil concentrated to obtain stock solutions. Compound requirements are based upon a 12 mL application volume at a rate of 187 liters per hectare (L/ha). Spray solutions of the second cereal herbicide and experimental compound mixtures were prepared by adding the stock solutions to the appropriate amount of dilution solution to form 12 mL spray solution with active ingredients in two- and three-way combinations. Formulated compounds were applied to the plant material with an overhead Mandel track sprayer equipped with an 8002E nozzle calibrated to deliver 187 L/ha over an application area of 0.503 square meters (m^2) at a spray height of 18 inches (46 cm) above average plant canopy. Control plants were sprayed in the same manner with the solvent blank.
The treated plants and control plants were placed in a greenhouse as described above and watered by sub-irrigation to prevent wash-off of the test compounds. After 20-22 days, the condition of the test plants as compared with that of the control plants was determined visually and scored on a scale of 0 to 100 percent where 0 corresponds to no injury and 100 corresponds to complete kill.
Colby's equation was used to determine the herbicidal effects expected from the mixtures (Colby, S. R. 1967. Calculation of the synergistic and antagonistic response of herbicide combinations. Weeds 15:20-22.).
The following equation was used to calculate the expected activity of mixtures containing two active ingredients, A and B: Expected=A+B−(A×B/100)

[2] = system: ECHOR (Echinochloa oryzoides, early watergrass); test: In-water applied weed control, transplanted paddy rice, greenhouse (Example II); format: in vivo, Echinochloa oryzoides (Ard.) Fritsch
Procedure: (§1) Weed seeds or nutlets of the desired test plant species were planted in puddled soil (mud) prepared by mixing a shredded, non-sterilized mineral soil (50.5 percent silt, 25.5 percent clay, and 24 percent sand, with a pH of about 7.6 and an organic matter content of about 2.9 percent) and water at a 1:1 volumetric ratio. The prepared mud was dispensed in 365 mL aliquots into 16-ounce (oz.) non-perforated plastic pots with a surface area of 86.59 square centimeters (cm^2) leaving a headspace of 3 centimeters (cm) in each pot. Rice seeds were planted in Sun Gro MetroMix® 306 planting mixture, which typically has a pH of 6.0 to 6.8 and an organic matter content of about 30 percent, in plastic plug trays. Seedlings at the second or third leaf stage of growth were transplanted into 860 mL of mud contained in 32-oz. non-perforated plastic pots with a surface area of 86.59 cm^2 4 days prior to herbicide application. The paddy was created by filling the headspace of the pots with 2.5 to 3 cm of water. When required to ensure good germination and healthy plants, a fungicide treatment and/or other chemical or physical treatment was applied. The plants were grown for 4-22 days in a greenhouse with an approximate 14 h photoperiod which was maintained at about 29′C during the day and 26° C. during the night. Nutrients were added as Osmocote® (19:6:12, N:P:K+minor nutrients) at 2 g per 16-oz. pot and 4 g per 32-oz. pot. Water was added on a regular basis to maintain the paddy flood, and supplemental lighting was provided with overhead metal halide 1000-Watt lamps as necessary. The plants were employed for testing when they reached the first through fourth true leaf stage.
(§2) Treatments consisted of the acid or esters of 4-amino-3-chloro-5-fluoro-6-(4-chloro-2-fluoro-3-methoxy-phenyl)pyridine-2-carboxylic acid (compound A) each formulated as an SC and various herbicidal components alone and in combination. Forms of compound A were applied on an acid equivalent basis.
(§3) Other herbicidal components were applied on an active ingredient basis and included acetolactate synthase (ALS)-inhibiting herbicides (sulfonylurea chemical class), azimsulfuron formulated as Gulliver®, bensulfuron-methyl formulated as Londax® 60DF, cyclosulfamuron (technical grade materail), ethoxysulfuron formulated as Sunrice® 15 WDG, flucetosulfuron formulated as Sukedachi® 1KG G, imazosulfuron formulated as Brazzos®, metsulfuron-methyl formulated as Lorate®, nicosulfuron formulated as Accent®, orthosulfamuron formulated as Strada® WG, propyrisulfuron formulated as Zeta One®, and rimsulfuron formulated as Matrix® WG.
(§4) Treatment requirements for each compound or herbicidal component were calculated based upon the rates being tested, the concentration of active ingredient or acid equivalent in the formulation, an application volume of 2 mL per component per pot, and an application area of 86.59 cm^2 per pot.
(§5) For formulated compounds, a measured amount was placed in an individual 100 or 200 mL glass vial and was dissolved in a volume of 1.25% (v/v) Agri-Dex® crop oil concentrate to obtain application solutions.
(§6) For technical grade compounds, a weighed amount was placed in an individual 100 to 200 mL glass vial and was dissolved in a volume of acetone to obtain concentrated stock solutions. […] The concentrated stock solutions obtained were diluted with an equivalent volume of an aqueous mixture containing 2.5% (v/v) crop oil concentrate so that the final application solutions contained 1.25% (v/v) crop oil concentrate.
(§7) Applications were made by injecting with a pipetter appropriate amounts of the application solutions, individually and sequentially, into the aqueous layer of the paddy. Control plants were treated in the same manner with the solvent blank. Applications were made so that all treated plant material received the same concentrations of acetone and crop oil concentrate. […]

[3] = system: CYPIR (Cyperus iria, rice flatsedge); test: Postemergence foliar-applied weed control, direct seeded rice, greenhouse (Example I); format: in vivo, Cyperus iria L.; conditions: 20 DAA
Text: (§8) Seeds or nutlets of the desired test plant species were planted in a soil matrix prepared by mixing a loam or sandy loam soil (e.g., 28.6 percent silt, 18.8 percent clay, and 52.6 percent sand, with a pH of about 5.8 and an organic matter content of about 1.8 percent) and calcareous grit in an 80 to 20 ratio. The soil matrix was contained in plastic pots with a volume of 1 quart and a surface area of 83.6 square centimeters (cm^2). When required to ensure good germination and healthy plants, a fungicide treatment and/or other chemical or physical treatment was applied. The plants were grown for 8-22 days in a greenhouse with an approximate 14 h photoperiod which was maintained at about 29° C. during the day and 26° C. during the night. Nutrients (Peters Excel® 15-5-15 5-Ca 2-Mg and iron chelate) were applied in the irrigation solution as needed and water was added on a regular basis. Supplemental lighting was provided with overhead metal halide 1000-Watt lamps as necessary. The plants were employed for testing when they reached the first through fourth true leaf stage.
(§9) Treatments consisted of the acid or esters of 4-amino-3-chloro-5-fluoro-6-(4-chloro-2-fluoro-3-methoxy-phenyl)pyridine-2-carboxylic acid (Compound A), each formulated as an SC, and various herbicidal components alone and in combination. Forms of compound A were applied on an acid equivalent basis.
(§10) Other herbicidal components were applied on an active ingredient basis and included acetolactate synthase (ALS)-inhibiting herbicides (sulfonylurea chemical class) azimsulfuron formulated as Gulliver®, bensulfuron-methyl formulated as Londax® 60DF, cyclosulfamuron (technical material), ethoxysulfuron formulated as Sunrice® 15 WDG, flazasulfuron formulated as Katana®, flucetosulfuron formulated as Sukedachi® 1KG G, foramsulfuron formulated as Option®, imazosulfuron formulated as Brazzos® WG, iodosulfuron-methyl-sodium formulated as Hussar®, metsulfuron-methyl formulated as Lorate®, nicosulfuron formulated as Accent®, orthosulfamuron formulated as Strada® WG, primisulfuron-methyl (technical material), propyrisulfuron formulated as Zeta One®, rimsulfuron formulated as Matrix® WG, sulfometuron-methyl formulated as Oust®, and trifloxysulfuron-sodium formulated as Monument® 75WG.
(§11) Treatment requirements were calculated based upon the rates being tested, the concentration of active ingredient or acid equivalent in the formulation, and a 12 mL application volume at a rate of 187 L/ha.
(§12) For treatments comprised of formulated compounds, measured amounts of compounds were placed individually in 25 mL glass vials and diluted in a volume of 1.25% (v/v) Agri-Dex® crop oil concentrated to obtain 12× stock solutions. […] Application solutions were prepared by adding an appropriate amount of each stock solution (e.g., 1 mL) and diluted to the appropriate final concentrations with the addition of 10 mL of an aqueous mixture of 1.25% (v/v) crop oil concentrate so that the final spray solutions contained 1.25+/−0.05% (v/v) Agrcrop oil concentrate.
(§13) For treatments comprised of formulated and technical compounds, weighed amounts of the technical materials were placed individually in 25 mL glass vials and dissolved in a volume of 97:3 v/v acetone/DMSO to obtain 12× stock solutions, and measured amounts of the formulated compounds were placed individually in 25 mL glass vials and diluted in a volume of 1.25% (v/v) crop oil concentrate to obtain 12× stock solutions. […] Application solutions were prepared by adding an appropriate amount of each stock solution (e.g., 1 mL) and diluted to the appropriate final concentrations with the addition of an appropriate amount of an aqueous mixture of 1.5% (v/v) crop oil concentrate so that the final spray solutions contained 1.25% (v/v) crop oil concentrate. […]

[4] = system: BRAPP (Brachiaria platyphylla, broadleaf signalgrass); test: as above; format: in vivo, Brachiaria platyphylla (Griseb.) Nash; conditions: Urochloa platyphylla, post-emergence, 480 h, 20 DAA, read-out: Visual Weed Control (%) Obs
Text: as §8, §9, §10, §11, §12, §13

[5] = system: CYPES (Cyperus esculentus, yellow nutsedge); test: as above; format: in vivo, Cyperus esculentus L.; conditions: 20 DAA
Text: as §8, §9, §10, §11, §12, §13

[6] = system: SCPMA (Bolboschoenus maritimus or Schoenoplectus maritimus, sea clubrush); test: In-water applied weed control, transplanted paddy rice, greenhouse (Example II); format: in vivo, Bolboschoenus maritimus (L.) Palla
Procedure: as §1, §2, §3, §4, §5, §6, §7

[7] = system: LEFCH (Leptochloa chinensis, Chinese sprangletop); test: Postemergence foliar-applied weed control, direct seeded rice, greenhouse (Example I); format: in vivo, Leptochloa chinensis (L.) Nees; conditions: Dinebra chinensis, post-emergence, 480 h, 20 DAA, read-out: Visual Weed Control (%) Obs
Text: as §8, §9, §10, §11, §12, §13

[8] = system: LEFCH (Leptochloa chinensis, Chinese sprangletop); test: In-water applied weed control, transplanted paddy rice, greenhouse (Example II); format: in vivo, Leptochloa chinensis (L.) Nees; conditions: Table 43, 17.5 gai/ha alone
Procedure: as §1, §2, §3, §4, §5, §6, §7

[9] = system: DIGSA (Digitaria sanguinalis, large crabgrass); test: Postemergence foliar-applied weed control, direct seeded rice, greenhouse (Example I); format: in vivo, Digitaria sanguinalis (L.) Scop.; conditions: 20 DAA
Text: as §8, §9, §10, §11, §12, §13

[10] = system: CYPRO (Cyperus rotundus, purple nutsedge); test: In-water applied weed control, transplanted paddy rice, greenhouse (Example II); format: in vivo, Cyperus rotundus L.
Procedure: as §1, §2, §3, §4, §5, §6, §7

## COC(=O)c1sccc1S(=O)(=O)NC(=O)Nc1nc(C)nc(OC)n1 [Thifensulfuron-methyl]
[1]
  pest or weed control at 3.75 g/ha: 35%

## COc1cc(OC)nc(NC(=O)NS(=O)(=O)Nc2ccccc2C(=O)N(C)C)n1 [Orthosulfamuron, 2-[[[[[(4,6-dimethoxy-2-pyrimidinyl)amino]carbonyl]amino]sulfonyl]amino]-N,N-dimethylbenzamide]
[2]; Table 46, 15 gai/ha alone
  Visual Weed Control (%) - 21 DAA ECHOR Obs: 10%
[3]; 7.5 gai/ha
  Visual Weed Control (%) Obs: 50%
[3]; 15 gai/ha
  Visual Weed Control (%) Obs: 75%
[3]; 30 gai/ha
  Visual Weed Control (%) Obs: 65%
[4]; 7.5 gai/ha
  pest or weed control at 7.5 g/ha: 0%
[4]; 15 gai/ha
  pest or weed control at 15 g/ha: 30%
[5]; 7.5 gai/ha
  Visual Weed Control (%) Obs: 0%
[5]; 15 gai/ha
  Visual Weed Control (%) Obs: 30%
[6]; Table 45, 60 gai/ha alone
  Visual Weed Control (%) - 20 DAA SCPMA Obs: 85%
[6]; Table 46, 60 gai/ha alone
  Visual Weed Control (%) - 20 DAA SCPMA Obs: 85%
[7]; 7.5 gai/ha
  pest or weed control at 7.5 g/ha: 0%
[7]; 15 gai/ha
  pest or weed control at 15 g/ha: 0%

## COc1cc(OC)nc(NC(=O)NS(=O)(=O)c2ncccc2C(=O)N(C)C)n1 [Nicosulfuron, 2-[[[[(4,6-dimethoxy-2-pyrimidinyl)amino]carbonyl]amino]sulfonyl]-N,N-dimethyl-3-pyridinecarboxamide, reference compound]
[2]; Table 43, 17.5 gai/ha alone
  Visual Weed Control (%) - 20 DAA ECHOR Obs: 0%
[2]; Table 44, 17.5 gai/ha alone
  Visual Weed Control (%) - 20 DAA ECHOR Obs: 0%
[2]; Table 44, 35 gai/ha alone
  Visual Weed Control (%) - 20 DAA ECHOR Obs: 50%
[3]; 8.75 gai/ha
  Visual Weed Control (%) Obs: 80%
[8]
  Visual Weed Control (%) - 20 DAA LEFCH Obs: 60%
[9]; 8.75 gai/ha
  Visual Weed Control (%) Obs: 30%
[9]; 17.5 gai/ha
  Visual Weed Control (%) Obs: 55%
[5]; 8.75 gai/ha
  Visual Weed Control (%) Obs: 10%
[5]; 17.5 gai/ha
  Visual Weed Control (%) Obs: 60%
[5]; 35 gai/ha
  Visual Weed Control (%) Obs: 70%
[7]; 35 gai/ha
  pest or weed control at 35 g/ha: 75%
[10]; Table 43, 17.5 gai/ha alone
  Visual Weed Control (%) - 20 DAA CYPRO Obs: 30%
[10]; Table 43, 35 gai/ha alone
  Visual Weed Control (%) - 20 DAA CYPRO Obs: 70%
